Experimental data taken from article PMC4522657, “Identification of a DYRK1A Inhibitor that Induces Degradation of the Target Kinase using Co-chaperone CDC37 fused with Luciferase nanoKAZ” (Scientific Reports, 2015).

Tests used:
3xFLAG-DYRK1A = target: T1, 3xFLAG-DYRK1A (Homo sapiens, UniProt Q13627); assay: Western blot of 3xFLAG-DYRK1A level in transfected 293T cells; assay type: cell-based
T1 construct: F2A peptide linking to EGFP (2A skipping releases EGFP; a 2A remnant may stay on DYRK1A) (C); expressed in transfected cells; host or cells: 293T cells, transient
Experimental: To investigate whether DYRK1A is a client kinase of the CDC37/HSP90 system, we used a HSP90 inhibitor, ganetespib. 293T cells were transiently transfected with an expression vector of 3xFLAG-tagged DYRK1A (3xFLAG-DYRK1A). At 24 h after transfection, the cells were treated with ganetespib for the indicated time (0–8 h). Total cell lysates were collected and subjected to SDS-PAGE followed by Western blot analysis.
Figure 1 Ganetespib, a HSP90 inhibitor, decreases the DYRK1A protein level. 293T cells were transiently transfected with an expression vector for 3xFLAG-DYRK1A. At 24 h after transfection, the cells were treated with ganetespib (100 nM) and collected 0 and 8 h after treatment. Total cell lysates were subjected to SDS-PAGE followed by Western blot analysis using antibodies against FLAG and GAPDH. In the control group (DMSO), expression of 3xFLAG-DYRK1A increased at 8 h compared to 0 h, and ganetespib suppressed this increase of 3xFLAG-DYRK1A.
(§1) Western blot analysis was performed using the antibodies described above. In brief, total cell lysates were separated by SDS-PAGE (5–20% gels; ATTO, Tokyo, Japan) under reducing conditions and then transferred to a PVDF membrane (PALL, SP, Brazil). Antibody reactions were performed with Can Get Signal® Immunoreaction Enhancer Solution (Toyobo). Peroxidase activities on the membrane were visualized with ECL Western Blotting Detection Reagents (GE Healthcare) or ImmunoStar® LD (Wako Pure Chemical Industries, Osaka, Japan), and a ChemiDoc^TM MP Imaging System (Bio-Rad, Hercules, CA, USA).

CDC37-nanoKAZ = assay: Luminescence activity of CDC37-nanoKAZ in total cell lysates; assay type: cell-based; details: counter-test, same concentrations as interaction assay
Experimental: (§2) The luminescence activity of the cell lysates was determined using a Centro LB 960 Microplate Luminometer (Berthold Technologies, Bad Wildbad, Germany). A reaction mixture containing bis-coelenterazine (final concentration of 0.1–1 μg/100 μL) in PBS containing 0.02% Tween20 and 20 mM EDTA was injected. The luminescence intensity was recorded at 0.1 s intervals for 10 s or 10 min. The maximum luminescence intensity (Imax), represented in relative luminescence units (rlu), was used in the study.
Targeting the DYRK1A/CDC37 complex
(a-d) Luminescence intensities of total cell lysates of cells treated with the indicated […]
Figure 4. Luminescence intensities at each concentration are shown as fold-changes relative to that at 0 nM. Points are means ± SD (n = 3).
(1 picture or pasted object on this page, not shown here)
Luminescence intensities of total cell lysates of cells treated with the indicated concentrations of CaNDY, as also used in Figure 5c. Luminescence intensities at each concentration are shown as fold-changes to that at 0 nM. Points are means ± SD (n = 3).

[1] = target: T2, interaction of CDC37-nanoKAZ with 3xFLAG-DYRK1A (Y319F/Y321F) (Homo sapiens, UniProt Q13627, Y319F/Y321F); assay: CDC37-nanoKAZ binding assay (ELISA of the CDC37-nanoKAZ interaction) in 293T cells; assay type: cell-based; details: for EC50: 293T cells stably expressing CDC37-nanoKAZ, treated one hour, read-out: EC50, decrease of relative luminescence intensity; for antagonism of the CDC37-nanoKAZ interaction: result in words, Fig. 6c
T2 construct: F2A peptide linking to EGFP (2A skipping releases EGFP; a 2A remnant may stay on DYRK1A) (C); expressed in transfected cells; host or cells: 293T cells stably expressing CDC37-nanoKAZ, transiently transfected with pcDNA5/FRT/TO 3xFLAG-DYRK1A (Y319F/Y321F)
Experimental: The cells were then treated with the indicated concentrations of small molecules for one hour. Cell lysates were added to FLAG antibody-coated 96-well plates and luminescence intensities were measured. The amount of bound 3xFLAG-DYRK1A was measured using a HRP-conjugated antibody against FLAG. The relative Imax for CDC37-nanoKAZ was normalized using the amount of bound protein.
Stable cell lines transfected with expression vectors for 3xFLAG-tagged DYRK family kinases and its mutants were lysed in ice-cold HENG buffer (50 mM HEPES-KOH, pH 7.9, 150 mM NaCl, 20 mM Na2MoO4, 2 mM EDTA, 5% Glycerol, 0.5% TritonX-100) containing protease inhibitor cocktail (Nacalai Tesque) on ice. […] The wells were wash three times with ice-cold HENG buffer and then a luminescence assay was performed.
as §2
After measuring the luminescence intensities, the wells were washed three times with HENG buffer, and incubated with HRP-conjugated anti-FLAG antibody diluted with PBS containing […] and 2% fetal bovine serum at 37 °C for one hour. After extensive washing, […] Super Sensitive One Component HRP Microwell Substrate (SurModics, Eden Prairie, MN, USA) was added into the well and the reaction was stopped with sulfuric acid. Absorbance at 450 nm was measured with ARVO X5 (PerkinElmer). The relative amount of protein bound on the well was estimated from the absorbance.
In Supporting Figure S1a, the values of Imax are shown in kinetics plots. In Figs 2c,e, 3c, S1d, S3, and S4, the relative luminescence intensities are shown as the fold-change in the Imax values of the samples relative to Imax with EGFP. In Figs 4, 5a,c and 6c, the relative luminescence intensities were normalized to the amount of the bound 3xFLAG-DYRK1A mutant and calculated as the fold-change relative to the value at 0 μM of the compounds.
Small molecules in our original synthetic chemical library, including unpublished small molecule inhibitors of DYRK1A and its structural derivatives (data not shown), were added to the 96-well plates containing the transfected cells at a final concentration of 4 μM. The cells were then processed as described above.

endogenous DYRK1A = target: T3, endogenous DYRK1A (Homo sapiens, UniProt Q13627); assay: Western blot of endogenous DYRK1A protein in HEK293 cells; assay type: cell-based; details: ganetespib 100 nM, 4 days
T3 construct: endogenous in cells; host or cells: HEK293
Experimental: We investigated whether CaNDY destabilizes DYRK1A as ganetespib does. […] Next we examined whether CaNDY decreased endogenous DYRK1A protein. HEK293 cells were cultured for 0–4 days with CaNDY (2 μM) and then subjected to SDS-PAGE followed by Western blot analysis using antibodies against DYRK1A and GAPDH. […] The treated cells were also subjected to reverse transcription followed by quantitative PCR analysis.
as §1

DYRK1A = DYRK1A (Homo sapiens, UniProt Q13627); assay: In vitro kinase assay, substrate DYRKtide-F; assay type: biochemical; set-up: full-length human recombinant kinases were expressed using a baculovirus expression system as amino-terminal GST-fusion proteins; GST (N); purchased Carna Biosciences; host or cells: baculovirus expression system; details: for inhibitory activity against recombinant DYRK1A: result in words, Fig. 6b
Description: Detailed information on the assay conditions is available on the website of Carna Biosciences (http://www.carnabio.com/english/index.html; Kobe, Japan). In brief, full-length human recombinant kinases were expressed using a baculovirus expression system as amino-terminal GST-fusion proteins, and purified by glutathione-Sepharose chromatography. The GenBank accession numbers of DYRK1A, DYRK1B, DYRK2, and DYRK3 were NP_001387.2, NP_004705.1, NP_003574.1, and NP_003573.2. […] For each compound, a DMSO solution was diluted in assay buffer to yield a final concentration of 1% DMSO. After incubation for one hour at room temperature, substrate phosphorylation was analyzed by electrophoretic separation of the substrate and products using a Caliper LC3000 platform (Caliper Life Sciences, Mountain View, CA, USA). The phosphorylated product (P)/(P + substrate) ratio was calculated at each concentration of each small molecule and the percent inhibition was expressed relative to a control assay in the absence of the small molecule. […] The IC50 of each compound was calculated by interpolation on a log-concentration-response curve fitted with a four-parameter logistic equation.

Question: How did the “effect on CaNDY-mediated degradation of 3xFLAG-DYRK1A” value (3xFLAG-DYRK1A; 2 µM epoxomicin pre-treatment 1 h, then CaNDY 2 µM 8 h) turn out when `CC[C@H](C)[C@H](NC(=O)[C@H]([C@@H](C)CC)N(C)C(C)=O)C(=O)N[C@H](C(=O)N[C@@H](CC(C)C)C(=O)[C@@]1(C)CO1)[C@@H](C)O` [epoxomicin] was run?
Answer: Its value is “partially prevented”.

Question: With `CCN1/C(=C/C(C)=O)Sc2ccc(O)cc21` [INDY] as the molecule, how does the “inhibition of luminescence activity of CDC37-nanoKAZ” value (from here on “inhibition”) (CDC37-nanoKAZ) read?
Answer: The value was “did not inhibit”.

Question: With `CC(C)c1cc(-c2n[nH]c(=O)n2-c2ccc3c(ccn3C)c2)c(O)cc1O` [ganetespib, reference compound] as the molecule, how does the EC50 [1] read?
Answer: Its EC50 is 14 nM.

Question: What about the DYRK1A protein level (3xFLAG-DYRK1A; ganetespib 100 nM, 8 h, compared with DMSO) of the same molecule?
Answer: Its DYRK1A protein level is “decreased the DYRK1A level”.

Question: And the “inhibition” value (CDC37-nanoKAZ)?
Answer: The value was “did not inhibit”.

Question: And the “accumulation of endogenous DYRK1A” value (endogenous DYRK1A)?
Answer: The value was “prevented it”.

Question: How did the “inhibition” value (CDC37-nanoKAZ) turn out when `COc1ccc2c(c1)[nH]c1c(C)nccc12` [harmine] was run?
Answer: Its value is “did not inhibit”.

Question: `[H]/N=C1/NC(=O)C(=Cc2ccc3[nH]ccc3c2)S1` [PD0442] was tested. Which “antagonism of the CDC37-nanoKAZ interaction” value [1] did it give?
Answer: Its value is “did not antagonize the interaction”.

Question: What about the “inhibitory activity against recombinant DYRK1A” value (DYRK1A) of the same molecule?
Answer: The value was “weak inhibitory activity”.

Question: Which “antagonism of the CDC37-nanoKAZ interaction” value [1] does the source give for `O=C1NC(=S)S/C1=C\c1ccc2[nH]ccc2c1` [RD0440] here?
Answer: Its value is “did not antagonize the interaction”.

Question: What about the “inhibitory activity against recombinant DYRK1A” value (DYRK1A) of the same molecule?
Answer: Its value is “weak inhibitory activity”.

Question: Which EC50 [1] does the source give for `N=C1NC(=O)C(=Cc2ccc3c(c2)OCO3)S1` [PD0439] here?
Answer: The EC50 was 573 nM.

Question: And the IC50 (DYRK1A; 25 μM ATP, 1 μM DYRKtide-F, read-out: IC50, substrate phosphorylation)?
Answer: Its IC50 is 16.7 nM.
